Earlier results as cited in patent publication US6943021B2, “Three dimensional vaginal tissue model containing immune cells” (MatTek Corporation, priority 2002, dated 2005).

Test system: ectocervical-vaginal tissue

Nonoxynol-9 [N-9]
ectocervical-vaginal irritation (finite segment of the population (Reckart 1992)): cause ectocervical-vaginal irritation | volunteers who experienced ectocervical-vaginal irritation (study evaluating N-9 as an HIV microbicide (Stafford et al. 1998)): 25%
